Source: PMC8041276 (ACS Chemical Neuroscience, 2021)

Biological target: T1, CYP2D6 (Homo sapiens, UniProt P10635)
T1 construct: purchased Promega (Madison, WI, USA)
Experiment: CYP2D6 P450-Glo luminescent inhibition assay
Type: in vitro ADME
Conditions: 0.01–25 μM
Text: The luminescent CYP3A4 P450-Glo and CYP2D6 P450-Glo assays and protocols were provided by Promega (Madison, WI, USA). The P450-Glo systems based on the conversion proluciferins, derivatives of beetle luciferin [(4S)-4,5-dihydro-2-(6′-hydroxy-2′-benzothiazolyl)-4-thiazolecarboxylic acid] into D-luciferin were catalyzed by respective CYP isoform. D-Luciferin is formed and detected in a second reaction with the luciferin detection reagent (LDR). The amount of light produced in the second reaction is proportional to CYP activity.
The stock solutions (10 mM) of the references ketoconazole (KE), quinidine (QD), and examined compounds were performed in DMSO. The 4× concentrated dilutions were prepared before the assays. […]
The CYPs, proluciferin, and examined compounds (25 μL/well) were preincubated first for 5 min, and next the NADPH regeneration system was added (25 μL) to start the reaction. […] The control reactions for measuring the 100% of CYPs activity and minus-CYP negative control reactions for measure background luminescence were also prepared. […] Finally, LDR was added (50 μL/well), and after 20 min of incubation in room temperature the luminescence signal was measured with a microplate reader (EnSpire, PerkinElmer) in luminescence mode. […] The IC50 values and were calculated using GraphPad Prism 5 software.

T1 sequence (P10635 whole entry): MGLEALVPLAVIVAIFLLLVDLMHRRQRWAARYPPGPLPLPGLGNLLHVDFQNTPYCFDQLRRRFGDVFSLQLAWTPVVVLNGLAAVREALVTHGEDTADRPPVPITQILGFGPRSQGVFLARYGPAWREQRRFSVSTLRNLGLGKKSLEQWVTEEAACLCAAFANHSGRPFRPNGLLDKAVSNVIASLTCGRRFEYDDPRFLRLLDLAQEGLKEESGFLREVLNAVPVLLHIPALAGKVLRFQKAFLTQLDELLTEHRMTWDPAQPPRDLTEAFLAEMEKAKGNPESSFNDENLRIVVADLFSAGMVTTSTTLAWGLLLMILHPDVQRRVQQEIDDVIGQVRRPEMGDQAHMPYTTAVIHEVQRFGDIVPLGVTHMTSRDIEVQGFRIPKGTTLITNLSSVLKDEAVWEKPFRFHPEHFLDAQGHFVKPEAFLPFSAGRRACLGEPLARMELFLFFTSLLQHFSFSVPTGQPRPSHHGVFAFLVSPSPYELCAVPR

O=C(N[C@@H]1CCNC1)c1ccn(S(=O)(=O)c2cccc(Cl)c2)c1-c1ccc(F)cc1 [Compound 27, (R)-2-(4-Fluorophenyl)-1-[(3-chlorophenyl)sulfonyl]-N-(pyrrolidin-3-yl)-1H-pyrrole-3-carboxamide]
influence on CYP2D6 activity: did not significantly influence
